From patent publication US12037354B2, “Cyclic pantetheine derivatives and uses thereof” (VectivBio Comet AG, priority 2018, dated 2024)

Key:
[1] = system: Lung fibroblast (MyoF system); assay: BioMAP MyoF system, Example 835; format: cell-based, human; details: 10 uM
Method: The BioMAP platform (BioMAP® Diversity PLUS Panel from Eurofins) is an in vitro phenotypic profiling technology that screened the compounds of the present disclosure (hereafter indicated as test agents) in human primary cell-based systems modelling complex tissue and disease states. The BioMAP assays were performed using the Eurofin's BioMAP Technology Platform as (see references 1 to 13 in the example 824 section) to model different diseases on primary cell-based model systems. These systems consisted of either single primary cell types or co-culture cells. Adherent cell types were cultured or co-cultured in 96 or 384-well plates until confluence followed by the addition of compounds prepared in DMSO at a final concentration of ≤0.1%. In each cell-based system, primary cells from heathy donors (2-6 donors) were pooled and treated with compounds at 1 and 10 μM dose 1 h prior to stimulation and remain in culture as indicated in […]
Following the general procedure as described in Example 824, Lung fibroblast (MyoF system) were treated with TNFα and TGFβ for 48 h in the presence or absence of the compounds to model fibrosis, chronic inflammation, wound healing, matrix remodelling. Biomarker read out were; α-SM Actin, bFGF, VCAM-1, Collagen-I, Collagen-III, […], IL-8, decorin, MMP-1, PAI-1, TIMP-1, SRB

[2] = system: Coronary artery smooth muscle cells (CASM3C system); assay: BioMAP CASM3C system, Example 832; format: cell-based, human
Method: (§1) The BioMAP platform (BioMAP® Diversity PLUS Panel from Eurofins) is an in vitro phenotypic profiling technology that screened the compounds of the present disclosure (hereafter indicated as test agents) in human primary cell-based systems modelling complex tissue and disease states. The BioMAP assays were performed using the Eurofin's BioMAP Technology Platform as (see references 1 to 13 in the example 824 section) to model different diseases on primary cell-based model systems. These systems consisted of either single primary cell types or co-culture cells. Adherent cell types were cultured or co-cultured in 96 or 384-well plates until confluence followed by the addition of compounds prepared in DMSO at a final concentration of ≤0.1%. In each cell-based system, primary cells from heathy donors (2-6 donors) were pooled and treated with compounds at 1 and 10 μM dose 1 h prior to stimulation and remain in culture as indicated in
(§2) Example 825, Example 826, Example 827, Example 828, Example 829, Example 830, Example 831, Example 832, Example 833, Example 834, Example 835, Example 836 and Example 837. For on the BioMAP® Diversity PLUS® Panel, please see the following references, which are incorporate herein.
Following the general procedure as described in Example 824, Coronary artery smooth muscle cells (CASM3C system) were treated with IL-1β, TNFα and IFNγ for 24 h in the presence or absence of the compounds to model cardiovascular inflammation and restenosis. Biomarker reads out were; MCP-1, VCAM-1, Throbomodulin, Tissue factor, uPAR, IL-8, MIG, HLA-DR, IL-6, LDLR, M-CSF, PAI-1, Proliferation, SAA and SRB

[3] = system: Dermal fibroblasts (HDF3CGF system); assay: BioMAP HDF3CGF system, Example 833; format: cell-based, human
Method: as §1, §2
Following the general procedure as described in Example 824, Dermal fibroblasts (HDF3CGF system) were treated with IL-1β, TNFα and IFNγ, EGF, bFGF and PDGF-BB for 24 h in the presence or absence of the compounds to model fibrosis and chronic inflammation. Biomarkers read out were; MCP-1, VCAM-1, ICAM-1, Collagen-I, Collagen-III, IP-10, I-TAC, IL-8, MIG, EGFR, M-CSF, MMP-1, PAI-1, SRB, TIMP-1, TIMP-2 and proliferation was measured for 72 h.

HepG2 cells = assay: Glucose uptake Glo Assay, Example 821; format: cell-based
Method: The effect of compounds from the present disclosure on glucose uptake was determined in HepG2 cells (ATCC, HB-8065) using the glucose uptake Glo Assay Kit (Promega, 11343 according to manufacturer instructions. HepG2 cells were cultured in complete DMEM-glucose media (Gibco) supplemented with 10% FBS (37° C. incubator with 5% CO2) and seeded in 96-well plates at 30,000 cells/well. After removing the complete media, 100 μL/well of serum-free, high-glucose DMEM media were added to the wells and incubated overnight (37° C. incubator with 5% CO2). Media was then replaced with 100 μl/well DPBS containing 0.6°/o BSA and starved for 1 hour. Next, DPBS was removed and 45 μl/well of insulin (100 nM) or compounds (10 μM-50 μM) were added to the wells and incubated for 10 minutes (37° C. incubator with 5% CO2). Insulin and compounds were prepared in DPBS with 0.6% BSA with a final DMSO concentration of 0.1%. Next, 5 μl of 2DG (10 mM) in DPBS were added per well and allowed to incubate for 20 minutes followed by addition of 25 μl stop buffer. 37.5 μl of the mixture were then transferred to a new plate and 12.5 μl of Neutralization buffer added to the wells. After, 50 μl of 2DG6P detection Reagent were added and incubated for 0.5-1 hour at room temperature. Luminescence was measured with 0.3-1 second integration on a luminometer.

[4] = system: Peripheral blood mononuclear cells co-cultured with B-cells (BT system); assay: BioMAP BT system, Example 829; format: cell-based, human
Method: as §1, §2
Following the general procedure as described in Example 824, Peripheral blood mononuclear cells were co-cultured with B-cells (BT system) were treated with either α-IgM and TCR ligands for 72 h in the presence or absence of the compounds to model asthma, allergy, oncology and autoimmunity. Biomarkers read out were; B-cell proliferation, PBMC cytotoxicity, secreted IgG, sIL-17A, sIL-17F, sIL-2, sIL-6 and s-TNFα.

[5] = system: Keratinocytes co-cultured with dermal fibroblast (KF3CT system); assay: BioMAP KF3CT system, Example 834; format: cell-based, human
Method: as §1, §2
Following the general procedure as described in Example 824, Keratinocytes were co-cultured with dermal fibroblast (KF3CT system) and treated with […], TNFα, IFNγ and TGFβ for 24 h in the presence or absence of the compounds to model psoriasis, dermatitis and skin biology. Biomarkers read out were; MCP-1, ICAM-1, IP-10, IL-8, MIG, IL-1α, MMP-9, PAI-1, SRB, TIMP-2, uPA.

[6] = Homo sapiens, 20 min, read-out: % increase in Glucose Uptake

| SMILES | % decrease in uPA [1] [%] | % decrease in LDLR ([2]; 1 uM) [%] | % decrease in VCAM-1 ([2]; 1 uM) [%] | % decrease in uPAR ([2]; 1 uM) [%] | % decrease in HLA-DR ([2]; 10 uM) [%] | % decrease in Thrombomodulin ([2]; 10 uM) [%] | % decrease in EGFR ([3]; 1 uM) [%] | % decrease in TIMP-1 ([3]; 1 uM) [%] | % decrease in TIMP-2 ([3]; 1 uM) [%] | % increase in 72 Hour Proliferation ([3]; 10 uM) [%] | activation at 50 µM (HepG2 cells; [6]) [%] | % increase in Glucose Uptake (HepG2 cells; concentration tested 50 uM) [%] | % decrease in sTNFα ([4]; BT system, 1 uM) [%] | % increase in B-cell Proliferation ([4]; BT system, 10 uM) [%] | % increase in sIL-6 ([4]; BT system, 10 uM) [%] | % increase in B-cell Proliferation ([4]; concentration tested 10 uM) [%] | % decrease in Thrombomodulin ([2]; 1 uM) [%] | % decrease in Tissue Factor ([2]; 1 uM) [%] | % decrease in MCP-1 ([5]; 1 uM (Example 927)) [%] | % decrease in MCP-1 ([5]; 1 uM (Example 928)) [%] | other results |
| --- | --- | --- | --- | --- | --- | --- | --- | --- | --- | --- | --- | --- | --- | --- | --- | --- | --- | --- | --- | --- | --- |
| C/C=C/C(=O)SCCNC(=O)CCNC(=O)[C@@H]1OP(=O)(O)OCC1(C)C [Compound 36] | ≥10 | ≥10 | ≥10 | ≥10 | ≥10 | ≥20 | ≥10 | ≥10 | ≥20 | ≥10 | ≥ 30 | ≥30 | ≥10 | ≥20 | ≥10 | ≥20 | – | – | – | – | % decrease in M-CSF ([2]; 10 uM): ≥10%; % decrease in Tissue Factor ([2]; 10 uM): ≥10%; % decrease in MMP-1 ([3]; 10 uM): ≥10% |
| COC(=O)CCC(=O)SCCNC(=O)CCNC(=O)[C@@H]1OC(C)(CC(=O)OC)OCC1(C)C (stereo partly drawn) [Compound 633] | ≥10 | ≥10 | ≥10 | ≥10 | – | – | ≥10 | ≥20 | ≥10 | ≥10 | – | – | – | ≥20 | ≥20 | ≥20 | ≥10 | ≥10 | ≥10 | ≥10 | % decrease in HLA-DR ([2]; 1 uM): ≥10%; % decrease in M-CSF ([2]; 1 uM): ≥10%; % decrease in IL-8 ([2]; 10 uM): ≥10%; % increase in PAI-I ([3]; 10 uM): ≥10%; % decrease in sTNFα ([4]; BT system, 10 uM): ≥10%; % increase in sIL-2 ([4]; BT system, 10 uM): ≥20% |
| CC(=O)CC(=O)SCCNC(=O)CCNC(=O)[C@@H]1OP(=O)(O)OCC1(C)C [Compound 42] | – | – | – | – | – | ≥10 | – | – | – | – | – | – | – | – | – | – | – | – | ≥10 | ≥10 | % decrease in IL-8 ([2]; 10 uM): ≥10%; % decrease in LDLR ([2]; 10 uM): ≥10%; % decrease in TIMP-2 ([3]; 10 uM): ≥10%; activation at 10 µM (HepG2 cells; Homo sapiens, 20 min, 10 uM, read-out: % increase in Glucose Uptake): ≥ 30%; % increase in Glucose Uptake (HepG2 cells; concentration tested 10 uM): ≥30%; % decrease in B-cell proliferation ([4]; BT system, 10 uM): ≥10%; % decrease in sIL-17 ([4]; BT system, 10 uM): ≥20%; % decrease in sTNFα ([4]; BT system, 10 uM): ≥20%; % decrease in B-cell proliferation ([4]; concentration tested 10 uM): ≥10%; % decrease in sIL-17 ([4]; concentration tested 10 uM): ≥20% |
| COC(=O)CCC(=O)SCCNC(=O)CCNC(=O)[C@@H]1OC(=O)OCC1(C)C [Compound 451] | – | – | ≥10 | – | ≥10 | – | – | ≥10 | – | – | ≥ 20 | ≥20 | ≥20 | – | – | – | ≥10 | – | ≥10 | ≥10 | % increase in IL-6 ([2]; 10 uM): ≥10%; % decrease in Collagen III ([3]; 1 uM): ≥10%; % increase in B-cell Proliferation ([4]; BT system, 1 uM): ≥10%; % increase in B-cell Proliferation ([4]; concentration tested 1 uM): ≥10% |
| CCOP1(=O)OCC(C)(C)[C@H](C(=O)NCCC(=O)NCCSC(=O)CCC(=O)O)O1 (stereo partly drawn) [Compound 61] | – | – | ≥10 | – | – | ≥20 | – | – | – | – | ≥ 10 | ≥10 | – | ≥10 | ≥10 | ≥10 | – | ≥10 | ≥20 | ≥20 | % decrease in LDLR ([2]; 10 uM): ≥10%; % decrease in TIMP-1 ([3]; 10 uM): ≥10% |
